# In PubChem BioAssay (NCI):
#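 Cells were grown in 96-well plates and exposed to each compound for 48 hours at five concentrations; endpoints were interpolated linearly between bracketing concentrations, or set to the highest concentration if not reached. GI50: concentration for 50% inhibition of growth. The concentration for full growth arrest is given as TGI.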
# Experiments:
# Assay in all cases: inhibition of tumour cell growth, NCI panel, 48 h
# HOP-62 NSCLC = system: HOP-62 NSCLC
# IGROV1 ovarian = system: IGROV1 ovarian
# M14 melanoma = system: M14 melanoma
# MOLT-4 leukemia = system: MOLT-4 leukemia
# SF-268 CNS = system: SF-268 CNS
# SK-MEL-28 melanoma = system: SK-MEL-28 melanoma
# SK-OV-3 ovarian = system: SK-OV-3 ovarian
# SN12C renal = system: SN12C renal
# U251 CNS = system: U251 CNS
# UACC-62 melanoma = system: UACC-62 melanoma
Structure (SMILES),TGI (HOP-62 NSCLC),TGI (IGROV1 ovarian),TGI (M14 melanoma),TGI (MOLT-4 leukemia),TGI (SF-268 CNS),TGI (SK-MEL-28 melanoma),TGI (SK-OV-3 ovarian),TGI (SN12C renal),TGI (U251 CNS),TGI (UACC-62 melanoma),GI50 (HOP-62 NSCLC),GI50 (IGROV1 ovarian),GI50 (M14 melanoma),GI50 (MOLT-4 leukemia),GI50 (SF-268 CNS),GI50 (SK-MEL-28 melanoma),GI50 (SK-OV-3 ovarian),GI50 (SN12C renal),GI50 (U251 CNS),GI50 (UACC-62 melanoma)
COc1ccc(C(=O)C(c2ccc(OC)cc2)C2(O)C(=O)Nc3ccc([N+](=O)[O-])cc32)cc1 (stereo not given),> 100 µM,> 100 µM,> 100 µM,> 100 µM,> 100 µM,> 100 µM,> 100 µM,24.4 µM,> 100 µM,> 100 µM,,,,,,,,,,
NC(=O)NC1C(c2ccccc2)=C1c1ccccc1,> 100 µM,28.4 µM,39.4 µM,17.7 µM,32 µM,33.3 µM,38.2 µM,35.4 µM,32.7 µM,23.4 µM,,,,,,,,,,
CCCCC(C(=O)C(=O)NC1C2CC3CC(C2)CC1C3)C(=O)C(C)C (stereo not given),> 100 µM,> 100 µM,> 100 µM,> 100 µM,> 100 µM,> 100 µM,> 100 µM,> 100 µM,> 100 µM,> 100 µM,,,,,,,,,,
COc1ccc(-n2cc(-c3cc(OC)c(OC)c(OC)c3)c(C(=O)C(F)(F)F)c2C)cc1,> 100 µM,> 100 µM,> 100 µM,> 100 µM,> 100 µM,> 100 µM,> 100 µM,> 100 µM,> 100 µM,> 100 µM,> 100 µM,85.7 µM,> 100 µM,6.02 µM,99.5 µM,> 100 µM,> 100 µM,28.6 µM,63.4 µM,15.6 µM
COC(=O)C1=C(O)c2cc(OC)c(OC)cc2C(c2ccc(OC)c(OC)c2)C1 (stereo not given),> 100 µM,> 100 µM,> 100 µM,> 100 µM,> 100 µM,> 100 µM,> 100 µM,> 100 µM,> 100 µM,> 100 µM,,,,,,,,,,
NNC(=S)N/N=C(\CC1OC(=O)c2ccccc21)c1ccccc1O (stereo not given),> 100 µM,> 100 µM,> 100 µM,75.6 µM,> 100 µM,> 100 µM,> 100 µM,> 100 µM,56.2 µM,> 100 µM,,,,,,,,,,
COc1cc(C2CC(c3cccc(Br)c3)=NN2C(C)=O)cc(OC)c1OC (stereo not given),62.8 µM,> 100 µM,50.2 µM,5.05 µM,83.3 µM,> 77.9 µM,47.2 µM,> 81.4 µM,53.4 µM,29.3 µM,3.56 µM,2.04 µM,0.555 µM,0.368 µM,0.785 µM,3.8 µM,0.379 µM,2.76 µM,0.454 µM,0.309 µM
N#Cc1nc(Nc2cccc3ccccc23)sc1N,> 100 µM,> 100 µM,> 100 µM,> 100 µM,> 100 µM,> 100 µM,> 100 µM,> 100 µM,52.9 µM,59 µM,,,,,,,,,,
